pIC50: −log10 of the molar value.
Tested on: MDA-MB-231 complex spheroids, growth inhibition
Experiment: Anticancer human tumor MDA-MB-231 cell line growth inhibition [Asc];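 further: spheroids exposed to compounds for 7 days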
Conditions: for pIC50: curve of first compound; for viability, T/C: stronger effect = lower value
Protocol: Multicellular complex tumor spheroid response to apoptosis pathway targeting inhibitors Alrizomadlin, Pelcitoclax, and Dasminapant in combination with a variety of drugs and investigational agents in selected tumor cell lines
The MDM2 inhibitor alrizomadlin, the Bcl-2/Bcl-xL inhibitor pelcitoclax, and the IAPs inhibitor dasminapant were evaluated both individually and in combination with standard of care and investigational anticancer small molecules within a complex spheroid model of solid tumors. . Complex spheroids include a stromal component modeled by human endothelial cells (HUVEC) and fibroblasts modeled by human mesenchymal stem cells (MSCs). The concentration ranges selected for each drug and investigational agent were based upon clinically achievable concentrations if the clinical Cmax of the agent was known.
Compounds. The drugs and investigational agents: alrizomadlin (APG-115; NSC831270), pelcitoclax (APG-1252; NSC835773), dasminapant (APG-1387;NSC834197), TAK-243 (NSC785004), copanlisib (NSC809693), olaparib (NSC753686), talazoparib (NSC767125), cobimetinib (NSC 768068), eltanexor (KPT-8602, NSC 794443), abemaciclib (NSC 768073), sotorasib (NSC818433), adagrasib (NSC 831453), MRTX-1133 (NSC 836407), Iadademestat (ORY1001, NSC 806812), and RMC-4630 (NSC839698), were obtained from the NCI Developmental Therapeutics Program Chemical Repository. The FDA-approved anticancer drug set is available from the Developmental Therapeutics Program at https://dtp.cancer.gov/organization/dscb/obtaining/available plates.htm. […] The stock solutions were prepared in dimethyl sulfoxide (DMSO, Sigma-Aldrich, St. Louis, MO, cat. D2650) at 800-fold the tested concentration and stored at -70 degrees C prior to their use. All drugs and investigational agents were tested over a range starting from a high concentration at or near the clinical Cmax and decreasing in half-log increments. If the clinical Cmax for an agent had not been determined, the highest concentration tested was 10 microM.
The patient-derived cancer (PDC) cell lines include five colon adenocarcinomas: 186277-243-T-J2-PDC, 616215-338-R-J1-PDC, 439559-082-T-J2-PDC, 463943-066-T-J2-PDC, and 519858-162-T-J1-PDC; three pancreatic carcinomas: 323965-272-R-J2-PDC, 521955-158-R6-J3-PDC, and 521955-158-R2-J5-PDC; two uterine sarcomas: 327498-152-R-J2-PDC and 993429-296-R-J1-PDC; two rhabdomyosarcomas: 755483-174-R-J1-PDC and 772245-204-R-J1-PDC; two soft tissue sarcomas: 126254-015-R-J1-PDC and 494315-158-R-J1-PDC; two malignant fibrous histiocytomas: 317291-083-R-J1-PDC and 596521-263-R-J1-PDC; two breast carcinomas: 171881-019-R-J1-PDC and 885512-296-R-J2-PDC; and one ovarian carcinoma: 6556581-035-R-J-PDC were obtained from the NCI PDMR, (https://pdmr.cancer.gov). The established cell lines HSSY-2 synovial sarcoma (RRID:CVCL 8719), SYO-1 synovial sarcoma (RRID:CVCL_7146), MPNST malignant peripheral neural sheath tumor were obtained from the Sloan Kettering Institute. The following established cell lines were purchased from the American Type Culture Collection (ATCC, Manassas, VA), Sor the received from the NCI repository:, PANC-1 pancreatic carcinoma (CRL-1469, RRID:CVCL_0480), OVCAR-5 ovarian carcinoma (RRID:CVCL_1628), OVCAR-8 ovarian carcinoma (RRID:CVCL_1629), , MCF-7 breast carcinoma (CRL-12584, RRID:CVCL_0031), MDA-MB-231 breast carcinoma (CRL-12532, RRID:CVCL_0062), NCI-H1876 small cell lung carcinoma (CRL-5902, RRID:CVCL_1503), NCI-H510A small cell lung carcinoma (HTB-184, RRID:CVCL_1565), NCI-H1417 (CRL-5869, RRID:CVCL_1469), and NCI-H196 small cell lung carcinoma (CRL-5823, RRID:CVCL_1509). Dr. Peter Houghton (Greehey Children's Cancer Research Institute, University of Texas Health Science Center, San Antonio, TX) provided Rh-18 rhabdomyosarcoma (RRID:CVCL_1659). Pooled donor human umbilical vein endothelial cells (HUVEC, Lonza, cat. CC-2519) and human mesenchymal stem cells (hMSC, Lonza, cat. PT-2501) were purchased from Lonza (Walkersville, MD).
Cell Culture. […]

SMILES: O=C(c1ccc(F)c(F)c1Nc1ccc(I)cc1F)N1CC(O)([C@@H]2CCCCN2)C1 + CCN1C(C(=O)NC23CCC(C(=O)O)(CC2)CC3)C(c2cccc(Cl)c2F)C2(C(=O)Nc3cc(Cl)ccc32)C12CCCCC2
- pIC50 (second compound 0.03 µM): 7.25
- pIC50 (second compound 0.0949 µM): 7.24
- pIC50 (second compound 0.3 µM): 7.34
- pIC50 (second compound 0.949 µM): 7.44
- pIC50 (second compound 3 µM): 7.84
- viability, T/C (second compound 0.03 µM, first compound 0.00316 µM): 81.9%
- viability, T/C (second compound 0.03 µM, first compound 0.01 µM): 65.3%
- viability, T/C (second compound 0.03 µM, first compound 0.0316 µM): 53.4%
- viability, T/C (second compound 0.03 µM, first compound 0.1 µM): 47.6%
- viability, T/C (second compound 0.03 µM, first compound 0.316 µM): 30.3%
- viability, T/C (second compound 0.03 µM, first compound 1 µM): 5.13%
- viability, T/C (second compound 0.0949 µM, first compound 0.00316 µM): 84.8%
- viability, T/C (second compound 0.0949 µM, first compound 0.01 µM): 64.5%
- viability, T/C (second compound 0.0949 µM, first compound 0.0316 µM): 54.1%
- viability, T/C (second compound 0.0949 µM, first compound 0.1 µM): 47.6%
- viability, T/C (second compound 0.0949 µM, first compound 0.316 µM): 30.6%
- viability, T/C (second compound 0.0949 µM, first compound 1 µM): 4.62%
- viability, T/C (second compound 0.3 µM, first compound 0.00316 µM): 95.7%
- viability, T/C (second compound 0.3 µM, first compound 0.01 µM): 63.6%
- viability, T/C (second compound 0.3 µM, first compound 0.0316 µM): 53.2%
- viability, T/C (second compound 0.3 µM, first compound 0.1 µM): 44.4%
- viability, T/C (second compound 0.3 µM, first compound 0.316 µM): 27.3%
- viability, T/C (second compound 0.3 µM, first compound 1 µM): 4.93%
- viability, T/C (second compound 0.949 µM, first compound 0.00316 µM): 86%
- viability, T/C (second compound 0.949 µM, first compound 0.01 µM): 58.5%
- viability, T/C (second compound 0.949 µM, first compound 0.0316 µM): 52.3%
- viability, T/C (second compound 0.949 µM, first compound 0.1 µM): 40.3%
- viability, T/C (second compound 0.949 µM, first compound 0.316 µM): 22.6%
- viability, T/C (second compound 0.949 µM, first compound 1 µM): 4.93%
- viability, T/C (second compound 3 µM, first compound 0.00316 µM): 70.9%
- viability, T/C (second compound 3 µM, first compound 0.01 µM): 48.6%
- viability, T/C (second compound 3 µM, first compound 0.0316 µM): 43%
- viability, T/C (second compound 3 µM, first compound 0.1 µM): 31.7%
- viability, T/C (second compound 3 µM, first compound 0.316 µM): 11.5%
- viability, T/C (second compound 3 µM, first compound 1 µM): 4.76%

Source: PubChem BioAssay AID1963443 (Molecular Pharmacology Branch, DTP, NCI, 2024)
